Test results published in article PMC9230201, “Sustained Consumption of a Decaffeinated Green Coffee Nutraceutical Has Limited Effects on Phenolic Metabolism and Bioavailability in Overweight/Obese Subjects” (Nutrients, 2022).
Values joined by “and” are separate entries in the source; they are usually repeats but may differ in a detail not shown here. Equal entries are not always repeated.

Columns and labels:
[1] = Plasma pharmacokinetics of phenolic metabolites after intake of the GCPE nutraceutical (LC-MS-QToF); conditions: for Cmax: mean ± SEM, n = 9
Experimental: Participants attended the Human Nutrition Unit (HNU) at the Institute of Food Science, Technology and Nutrition (ICTAN-CSIC) on two consecutive days at the beginning of the intervention (week 0) and also on two consecutive days at the end of the study, after consuming daily two doses of the GCPE nutraceutical, providing 600 mg/d phenols, during two months (week 8). On each occasion, on the first visit day (Figure 1), subjects arrived at the HNU after an overnight (12 h) fast and provided a urine sample. A licensed health care professional placed an intravenous catheter in the subjects′ nondominant arm and collected a fasting blood sample (baseline, 0 h). Then, subjects drank the soluble GCPE nutraceutical dissolved in 200 mL of water. Subsequently, blood samples were collected in EDTA-coated tubes at 0.5, 1, 1.5, 2, 3, 4, 6, 8, 10, and 11 h. On the sampling days, volunteers remained at the HNU, where a (poly)phenol-free diet was provided. Half an hour after consuming the nutraceutical, volunteers ate a breakfast consisting of ham, cheese, white bread, and a yogurt. Lunch (paella, bread, and yogurt) and an afternoon snack (muffin and yogurt) were eaten 5 and 9 h, respectively, after consuming the nutraceutical. Water and isotonic beverages were freely available. Volunteers were instructed to eat a (poly)phenol-free dinner that night and to attend the HNU on the next day after a 12 h fast. Then, a final blood sample was obtained from the antecubital vein 24 h after consuming the nutraceutical. The same protocol was followed during visits at the end of the 8-week intervention. On each occasion, two days before each visit to the HNU, subjects consumed a low (poly)phenol diet free of foods containing hydroxycinnamates such as coffee, herbal teas, red wine, artichokes, whole grain cereals, vegetables, fruits and fruit juices, and dried fruits. Only banana, watermelon, cantaloupes, and potatoes were allowed.
Blood samples were immediately centrifuged (10 min, 3000 rpm, 4 °C) to obtain plasma. […] All biological samples were stored at −80 °C until analysis.
To extract plasma metabolites, 10 µL of 50% (v/v) aqueous formic acid, and 900 µL cold acetonitrile containing 50 µL of 10% (w/v) ascorbic acid were added to 400 µL defrosted plasma. Samples were vortexed and centrifuged (14,000 rpm, 10 min, 4 °C), repeating the extraction and combining the two supernatants, which were reduced to dryness under nitrogen [13]. Dried samples were resuspended in 150 µL of 0.1% aqueous formic acid (containing 10% acetonitrile acidified with 0.1% formic acid), centrifuged (15 min, 14,000 rpm, 4 °C), and the supernatant collected.
A reverse-phase Ascentis Express C18 (15 cm × 3 mm, 2.7 µm) column (Sigma-Aldrich Quimica, Madrid, Spain), preceded by a Supelco 55215-U guard column (3 mm × 5 mm, 2.7 µm), was used for separation. Mobile phase A was 0.1% formic acid in Milli-Q water, and mobile phase B was acetonitrile containing 0.1% formic acid at a 0.3 mL/min flow rate. […] Metabolites were identified based on their retention time using authentic standards when possible.

[2] = Urinary excretion of phenolic metabolites after intake of the GCPE nutraceutical; conditions: for Cumulative urinary excretion, Total 0–24 h / Urinary excretion: urine; for Cumulative urinary excretion, Total 0–24 h: mean ± SEM, n = 9
[3] = week 0, GCPE nutraceutical with 300 mg hydroxycinnamic acids
[4] = week 0, first peak where biphasic
[5] = week 8, GCPE nutraceutical with 300 mg hydroxycinnamic acids
[6] = week 8, first peak where biphasic

Compound	Cumulative urinary excretion, Total 0–24 h ([2]; week 0)	Cumulative urinary excretion, Total 0–24 h ([2]; week 8)	Amount excreted in urine, 0- 3 h ([2]; week 0, interval 0–3 h)	Amount excreted in urine, 3-6 h ([2]; week 0, interval 3–6 h)	Amount excreted in urine, 6-9 h ([2]; week 0, interval 6–9 h)	Amount excreted in urine, 9-11 h ([2]; week 0, interval 9–11 h)	Amount excreted in urine, 11-24 h ([2]; week 0, interval 11–24 h)	Amount excreted in urine, 0- 3 h ([2]; week 8, interval 0–3 h)	Amount excreted in urine, 3-6 h ([2]; week 8, interval 3–6 h)	Amount excreted in urine, 6-9 h ([2]; week 8, interval 6–9 h)	Amount excreted in urine, 9-11 h ([2]; week 8, interval 9–11 h)	Amount excreted in urine, 11-24 h ([2]; week 8, interval 11–24 h)	AUC0–24h ([1]; week 0)	Cmax [1, 3]	Tmax (h) or Range [1, 4]	AUC0–24h ([1]; week 8)	Cmax [1, 5]	also measured
O=C(O)Cc1ccc(O)cc1 [4′-Hydroxyphenylacetic acid]	–	–	–	–	–	–	–	–	–	–	–	–	2 ± 1 µM/min	2000 ± 1000 nM	2 ± 2 h	36 ± 23 µM/min	7000 ± 3000 nM	Tmax (h) or Range [1, 6]: 0.6 ± 0.1 h
O=C(O)C=Cc1ccc(OC2OC(C(=O)O)C(O)C(O)C2O)cc1 (stereo not shown) [CoA-4′-glucuronide, Cinnamic acid-4′-glucuronide]	–	–	–	–	–	–	–	–	–	–	–	–	0.72 ± 0.08 µM/min	39 ± 2 nM	1.4 ± 0.3 h	0.71 ± 0.07 µM/min	38 ± 2 nM	Tmax, second peak ([1]; week 0, biphasic profile): 7.0 ± 0.9 h; Tmax, second peak ([1]; week 8, biphasic profile): 9 ± 2 h; Tmax (h) or Range [1, 6]: 2.1 ± 0.2 h
O=C(O)/C=C/c1ccc(OS(=O)(=O)O)cc1 [CoA-4′-sulfate, Cinnamic acid-4′-sulfate]	–	–	–	–	–	–	–	–	–	–	–	–	0.2 ± 0.2 µM/min	20 ± 20 nM	1.7 ± 0.9 h	0.4 ± 0.2 µM/min	30 ± 10 nM	Tmax, second peak ([1]; week 0, biphasic profile): 6 ± 3 h; Tmax, second peak ([1]; week 8, biphasic profile): 11 ± 3 h
O=C(O)CCc1ccc(O)c(O[C@@H]2O[C@H](C(=O)O)[C@@H](O)[C@H](O)[C@H]2O)c1 [DHCA-3′-glucuronide, 3-(4′-Hydroxyphenyl)propanoic acid-3′-glucuronide]	0.6 ± 0.2 µmol	0.5 ± 0.1 µmol	0.09 ± 0.03 µmol	0.07 ± 0.02 µmol	0.08 ± 0.04 µmol	0.04 ± 0.02 µmol	0.3 ± 0.09 µmol	0.11 ± 0.04 µmol	0.06 ± 0.02 µmol	0.08 ± 0.02 µmol	–	0.2 ± 0.06 µmol	–	–	–	–	–	–
O=C(O)CCc1ccc(O)c(OS(=O)(=O)O)c1 [DHCA-3′-sulfate, 3-(4′-Hydroxyphenyl)propanoic acid-3′-sulfate]	9 ± 2 µmol	9 ± 3 µmol	0.32 ± 0.07 µmol	0.26 ± 0.07 µmol	2.5 ± 0.9 µmol	2 ± 0.7 µmol	4 ± 1 µmol	0.7 ± 0.2 µmol	0.6 ± 0.2 µmol	2.5 ± 0.6 µmol	3 ± 1 µmol	2 ± 1 µmol	–	–	–	–	–	–
O=C(O)CCc1ccc(OS(=O)(=O)O)cc1 [DHCoA-4′-sulfate, 3-(Phenyl)propanoic acid-4′-sulfate]	21 ± 6 µmol	21 ± 4 µmol	0.9 ± 0.4 µmol	0.7 ± 0.1 µmol	3 ± 1 µmol	3 ± 1 µmol	12 ± 4 µmol	2 ± 0.8 µmol	1.5 ± 0.5 µmol	5 ± 2 µmol	5 ± 2 µmol	7 ± 3 µmol	–	–	–	–	–	–
COc1ccc(/C=C/C(=O)NCC(=O)O)cc1O [IsoFeruloylglicine]	0.44 ± 0.04 µmol	0.6 ± 0.1 µmol	0.04 ± 0.01 µmol	0.035 ± 0.009 µmol	0.08 ± 0.02 µmol	0.11 ± 0.01 µmol	0.16 ± 0.03 µmol	0.13 ± 0.05 µmol	0.1 ± 0.02 µmol	0.12 ± 0.04 µmol	0.06 ± 0.02 µmol	0.17 ± 0.05 µmol	–	–	–	–	–	–
COc1ccc(C=CC(=O)O)cc1OS(=O)(=O)O [iFA-3′-sulfate, 4′-Methoxycinnamic acid-3′-sulfate]	1.1 ± 0.3 µmol	2.1 ± 0.9 µmol	0.4 ± 0.1 µmol	0.07 ± 0.04 µmol	0.24 ± 0.08 µmol	0.09 ± 0.03 µmol	0.4 ± 0.1 µmol	0.34 ± 0.07 µmol	0.1 ± 0.03 µmol	0.32 ± 0.06 µmol	0.3 ± 0.1 µmol	1 ± 0.7 µmol	–	–	–	–	–	–

Further lines, with some results ahead:

Cumulative urinary excretion, Total 0–24 h ([2]; week 0)	Cumulative urinary excretion, Total 0–24 h ([2]; week 8)	Amount excreted in urine, 0- 3 h ([2]; week 0, interval 0–3 h)	Amount excreted in urine, 3-6 h ([2]; week 0, interval 3–6 h)	Amount excreted in urine, 6-9 h ([2]; week 0, interval 6–9 h)	Amount excreted in urine, 9-11 h ([2]; week 0, interval 9–11 h)	Amount excreted in urine, 11-24 h ([2]; week 0, interval 11–24 h)	Amount excreted in urine, 0- 3 h ([2]; week 8, interval 0–3 h)	Amount excreted in urine, 3-6 h ([2]; week 8, interval 3–6 h)	Amount excreted in urine, 6-9 h ([2]; week 8, interval 6–9 h)	Amount excreted in urine, 9-11 h ([2]; week 8, interval 9–11 h)	Amount excreted in urine, 11-24 h ([2]; week 8, interval 11–24 h)	Compound	AUC0–24h ([1]; week 0)	Cmax [1, 3]	Tmax (h) or Range [1, 4]	AUC0–24h ([1]; week 8)	Cmax [1, 5]	also measured
32 ± 5 µmol	46 ± 8 µmol	3 ± 2 µmol	1.1 ± 0.2 µmol	4 ± 1 µmol	5 ± 1 µmol	11 ± 2 µmol	4 ± 1 µmol	2.6 ± 0.7 µmol	6 ± 2 µmol	5 ± 1 µmol	9 ± 2 µmol	O=C(O)CNC(=O)c1cccc(O)c1 [3′-Hydroxyhippuric acid]	10 ± 3 µM/min	1100 ± 300 nM	10.0 ± 0.4 h	13 ± 3 µM/min	1300 ± 200 nM	Tmax (h) or Range [1, 6]: 9.2 ± 0.5 h; Cumulative urinary excretion, Total 0–24 h ([2]; week 0, listed as 3′-hydroxyhippuric acid): 32 µmol; Cumulative urinary excretion, Total 0–24 h ([2]; week 8, listed as 3′-hydroxyhippuric acid): 46 µmol; Amount excreted in urine, TOTAL ([2]; week 0, Table S5 total): 32 ± 5 µmol; Amount excreted in urine, 0 h ([2]; week 8, 0 h (before intake on sampling day)): 18 ± 5 µmol; Amount excreted in urine, TOTAL ([2]; week 8, Table S6 total): 46 ± 8 µmol
14 ± 2 µmol	14 ± 2 µmol	1.3 ± 0.3 µmol	0.7 ± 0.1 µmol	1 ± 0.3 µmol	0.8 ± 0.2 µmol	3.8 ± 0.9 µmol	1.5 ± 0.3 µmol	0.6 ± 0.1 µmol	1.2 ± 0.2 µmol	1.1 ± 0.3 µmol	2.8 ± 0.6 µmol	O=C(O)CNC(=O)c1ccc(O)cc1 [4′-Hydroxyhippuric acid]	1.2 ± 0.2 µM/min	80 ± 10 nM	12 ± 3 h	1.3 ± 0.2 µM/min	90 ± 10 nM	Tmax (h) or Range [1, 6]: 8 ± 2 h; Amount excreted in urine, TOTAL ([2]; week 0, Table S5 total): 14 ± 2 µmol; Amount excreted in urine, TOTAL ([2]; week 8, Table S6 total): 14 ± 2 µmol
0.3 ± 0.1 µmol	0.18 ± 0.07 µmol	0.12 ± 0.08 µmol	0.023 ± 0.004 µmol	0.027 ± 0.009 µmol	0.013 ± 0.004 µmol	0.1 ± 0.04 µmol	0.08 ± 0.04 µmol	0.021 ± 0.008 µmol	0.03 ± 0.02 µmol	0.008 ± 0.003 µmol	0.04 ± 0.02 µmol	COc1cc(CCC(=O)OC2CC(O)(C(=O)O)CC(O)C2O)ccc1O (stereo not shown) [5-Dihydroferuloylquinic acid]	–	–	–	–	–	–
3.7 ± 0.5 µmol	4.4 ± 0.8 µmol	1.2 ± 0.3 µmol	0.7 ± 0.2 µmol	0.8 ± 0.2 µmol	0.21 ± 0.06 µmol	0.9 ± 0.2 µmol	1.2 ± 0.2 µmol	0.6 ± 0.1 µmol	0.9 ± 0.3 µmol	0.7 ± 0.3 µmol	1 ± 0.3 µmol	O=C(O)/C=C/c1ccc(O)c(OS(=O)(=O)O)c1 [CA-3′-sulfate, 4′Hydroxycinnamic acid-3′-sulfate]	–	–	–	–	–	–
2.1 ± 0.3 µmol	1.9 ± 0.3 µmol	0.17 ± 0.06 µmol	0.1 ± 0.03 µmol	0.26 ± 0.09 µmol	0.28 ± 0.07 µmol	1.3 ± 0.2 µmol	0.23 ± 0.09 µmol	0.16 ± 0.05 µmol	0.56 ± 0.2 µmol	0.4 ± 0.1 µmol	1 ± 0.1 µmol	O=C(O)CCc1ccc(O[C@@H]2O[C@H](C(=O)O)[C@@H](O)[C@H](O)[C@H]2O)cc1 [DHCoA-4′-glucuronide, 3-(Phenyl)propanoic acid-4′-glucuronide]	–	–	–	–	–	–
4.4 ± 0.5 µmol	6 ± 1 µmol	0.9 ± 0.2 µmol	0.8 ± 0.2 µmol	1.1 ± 0.3 µmol	0.49 ± 0.09 µmol	1.1 ± 0.2 µmol	1.4 ± 0.3 µmol	0.9 ± 0.2 µmol	1.7 ± 0.3 µmol	1 ± 0.4 µmol	1.1 ± 0.3 µmol	COc1ccc(C=CC(=O)O)cc1O[C@@H]1O[C@H](C(=O)O)[C@@H](O)[C@H](O)[C@H]1O [iFA-3′-glucuronide, 4′-Methoxycinnamic acid-3′-glucuronide]	–	–	–	–	–	–
0.14 ± 0.03 µmol	0.10 ± 0.02 µmol	0.03 ± 0.01 µmol	0.015 ± 0.003 µmol	0.017 ± 0.006 µmol	0.015 ± 0.004 µmol	0.06 ± 0.02 µmol	0.009 ± 0.003 µmol	–	0.014 ± 0.002 µmol	0.012 ± 0.004 µmol	0.06 ± 0.02 µmol	Coumaroylquinic acid	–	–	–	–	–	Cumulative urinary excretion, Total 0–24 h ([2]; week 0, listed as coumaroylquinic acid): 0.14 µmol; Cumulative urinary excretion, Total 0–24 h ([2]; week 8, listed as coumaroylquinic acid): 0.10 µmol
–	–	–	–	–	–	0.12 µmol and 0.14 µmol	0.03 µmol and 0.017 µmol	0.009 µmol and 0.01 µmol	–	–	0.09 µmol and 0.12 µmol	Dihydrocoumaroylquinic acid	–	–	–	–	–	Urinary excretion ([2]; week 0): 0.22 µmol/24 h; Urinary excretion ([2]; week 8): 0.17 µmol/24 h
